{
  "source": "patent US8962523B2",
  "about": "“Herbicide/safener combination” (Bayer Cropscience AG, priority 2008, dated 2015)",
  "assay_type_in_all_cases": "in vivo",
  "key": {"[1]": {"system": "Corn (Aventura)", "experiment": "Pre-emergence herbicidal effect and safener effect, corn", "details": "no safener", "text": "(§1) Seeds or rhizome pieces of mono- and dicotyledonous weed plants and crop plants were planted in peat pots in sandy loam and covered with earth. The herbicide/safener active ingredient combinations according to the invention, formulated as water-soluble powders or suspensions, and, in parallel experiments, the correspondingly formulated individual active ingredients were then applied to the surface of the covering earth at an application rate of 600 to 800 l of water/ha (converted) in a variety of dosages.\n(§2) After the treatment, the pots were placed in the greenhouse and kept under good growth conditions for the weeds and the crop plants. Visual scoring of the plant damage or emergence damage was carried out after the test plants had emerged after a test period of 2 to 4 weeks, in comparison with untreated controls."}, "[2]": {"system": "Wheat (Triso)", "experiment": "Pre-emergence herbicidal effect and safener effect, wheat", "details": "herbicide 100 g a.i./ha, no safener, visual scoring vs untreated controls", "text": "as §1, §2"}, "[3]": {"system": "Wheat (Triso)", "experiment": "Post-emergence herbicidal effect and safener effect, wheat", "details": "herbicide 50 g a.i./ha, no safener", "procedure": "(§3) Seeds or rhizome pieces of mono- and dicotyledonous harmful plants and of crop plants are planted in peat pots in sandy loam, covered with earth and grown in a greenhouse under good growth conditions. Alternatively to this, harmful plants occurring in the paddy rice cultivation are cultivated in pots in which water comes to 2 cm above the soil surface. 10 to 20 days after sowing, the test plants are treated in the one to three-leaf stage. The herbicide/safener active ingredient combinations according to the invention, formulated as water-soluble powders or suspensions, and, in parallel experiments, the correspondingly formulated individual active ingredients are sprayed onto the green plant parts in various dosages using an application rate of 300 l of water/ha (converted) and, after the test plants have remained in the greenhouse under optimum growth conditions for 2-3 weeks, the effect of the preparations is scored visually in comparison with untreated controls. In the case of rice or in the case of harmful plants which occur in the rice cultivation, the active ingredients are also placed directly into the irrigation water (application analogous to the so-called granules application) or sprayed onto plants and into the irrigation water."}, "[4]": {"system": "Corn (Aventura)", "experiment": "Post-emergence herbicidal effect and safener effect, corn", "details": "herbicide 100 g a.i./ha, no safener", "procedure": "as §3"}, "[5]": {"system": "Barley (Adonis)", "experiment": "Post-emergence herbicidal effect and safener effect, barley", "details": "no safener", "procedure": "as §3"}},
  "data": [
    {"smiles": "COC(=O)c1nc(-c2ccc(Cl)nc2)cc(N)c1Cl", "note": "[I-128, Methyl 4-amino-3-chloro-6-(6-chloro-3-pyridinyl)pyridine-2-carboxylate]", "values": [
      {"measurement": "% Effect (without safener)", "setting": "[1]; herbicide 25 g a.i./ha", "result": 50, "unit": "%"},
      {"measurement": "% Effect (without safener)", "setting": "[1]; herbicide 50 g a.i./ha", "result": 65, "unit": "%"},
      {"measurement": "% Effect (without safener)", "setting": "[2]", "result": 50, "unit": "%"},
      {"measurement": "% Effect (without safener)", "setting": "[3]", "result": 40, "unit": "%"},
      {"measurement": "% Effect (without safener)", "setting": "[4]", "result": 40, "unit": "%"},
      {"measurement": "% Effect (without safener)", "setting": "[5]; herbicide 25 g a.i./ha", "result": 30, "unit": "%"},
      {"measurement": "% Effect (without safener)", "setting": "[5]; herbicide 50 g a.i./ha", "result": 20, "unit": "%"}
    ]}
  ]
}
